target: T1, JAK3 (JH1 and JH2 domain) (Homo sapiens, UniProt P52333); experiment: JAK3 Kinase Assay (ELISA of peptide substrate phosphorylation); assay type: biochemical; settings: purified JAK3 enzyme, 10 μM ATP, biotinylated peptide substrate, 1 hour at room temperature
T1 sequence (P52333 521-1111 limits assumed): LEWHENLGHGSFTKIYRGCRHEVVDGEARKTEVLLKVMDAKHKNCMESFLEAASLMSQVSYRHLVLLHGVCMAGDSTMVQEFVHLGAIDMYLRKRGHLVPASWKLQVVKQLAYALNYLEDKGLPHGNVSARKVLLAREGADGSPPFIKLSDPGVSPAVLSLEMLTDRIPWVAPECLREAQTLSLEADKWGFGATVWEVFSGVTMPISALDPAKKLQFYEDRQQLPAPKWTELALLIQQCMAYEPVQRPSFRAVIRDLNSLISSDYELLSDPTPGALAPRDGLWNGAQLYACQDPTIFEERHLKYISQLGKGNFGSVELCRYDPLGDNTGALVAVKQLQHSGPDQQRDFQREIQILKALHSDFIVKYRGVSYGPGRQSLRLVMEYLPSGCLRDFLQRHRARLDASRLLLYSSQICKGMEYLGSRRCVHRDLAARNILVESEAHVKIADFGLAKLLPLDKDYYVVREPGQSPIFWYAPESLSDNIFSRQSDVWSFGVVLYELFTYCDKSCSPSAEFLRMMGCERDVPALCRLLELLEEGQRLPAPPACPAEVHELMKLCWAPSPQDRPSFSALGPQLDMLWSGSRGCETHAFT
Description: JAK3 enzyme activity was assayed relative to enzyme phosphorylation using the method described herein.
Sf21 cells derived from the ovarian tissue of the fall armyworm Spodotera frugiperda were obtained from Pharmingen (San Diego, Calif.) and maintained at a temperature of about 26-28° C. in 1 l Bellco spinner flasks at 60-90 rpm. Cell viability was maintained at 95-100%, as determined by a tryptan blue dye exclusion test.
Sf21 cells were infected with a baculovirus expression vector for JAK3 (JH1 and JH2 domain). After 48 hours of infection, cells were harvested and lysed in Tris-saline (pH 7.6) containing 2% NP-40 and a combination of protease inhibitors (Aprotinin, Pepstatin A, Pefabloc, E-64, Leupeptin, and Benzamidine) on ice for 45 minutes.
The JAK3 enzyme was purified from the lysate using glutathione sepharose beads and the enzyme activity was assessed in Costar flat bottom EIA/RIA 96 well plates. The plates were coated with Neutravidin (110 μL) (Pierce Neutravidin Biotin-binding Protein 31000; 1 mg/mL 1:100) diluted in PBS for 1 hour at room temperature. The plates were washed with PBS-0.1% Tween (3 times) to remove unbound Neutravidin, then 1% BSA (150 NIL) in PBS was added to each well to block non-specific binding. The plates was incubated for 1 hour at room temperature and stored at −80° C. until use.
JAK3 enzyme solution (48 μL) in 1.25×TK buffer (62.5 mM HEPES pH 7.5, 12.5 mM MgCl2) containing DTT (42 mM) (Sigma, St. Louis, Mo.) was added to each well of a polypropylene 96 well plate.
A test compound (5 μL) diluted in DMSO (48 μL) and biotinylated peptide enzyme substrate (5 μg diluted in TK buffer containing 10 μM ATP) were added to each well using the double dispense feature of a multichannel electronic biohit. Control wells received DMSO vehicle (5 μL). The contents of the wells were mixed for approximately 8 seconds using a multitube vortexer and the reaction mixture was incubated for 1 hour at room temperature.
After incubation, an aliquot of reaction mixture (90 μL) was transferred into a washed Neutravidin coated plate. The plate was incubated for 15 minutes at room temperature and washed 3 times with PBS-T. PY99 anti-phosphotyrosine antibody (100 μL/well) (Santa Cruz #sc-7020HRP diluted 1:6000 in 1× antibody buffer) was added into each well and the plate was incubated for 40 minutes at room temperature. The antibody buffer contained 10% BSA, 100 mM Tris (pH 7.5), 1M NaCl and 1% Tween 20. The plate washed 3 times with PBS-T, then TMB (100 pLXSigma, St. Louis, Mo.) was added to the each well. The plate was incubated for another 40 mins at room temperature in the dark. The reaction was stopped by the addition of 1M H2SO4 (50 μL/well) and the optical density was read at 450/650 nm.
Test compounds were assayed in triplicate at 16 concentrations at half-log dilutions starting at 200 μM. A maximum and minimum signal for the assay was determined on each plate. The percent inhibition of a test compound was calculated according to the formula [formula]
For a series of test concentrations, the IC50 was derived by graphing percent inhibition against the log of the concentrations tested for a given compound. For those compounds without an IC50, the percent inhibition results are shown at a test concentration of 1 μM.

Row | Compound | IC50 [nM]
1 | CN(C)CCCN1CCN(C(=O)OC2CCCn3c4ccccc4c4c5c(c6c7ccccc7n(c6c43)C2)C(=O)NC5=O)CC1 (centres unmarked) [Cpd 115, 12,13-(2-{[4-(3-dimethylamino-prop-1-yl)piperazin-1-y]carbonyloxy}-pentan-1,5-yl)-12,13-dihydro-5,7-dioxo-6H-indolo[2,3-a]pyrrolo[3,4-c]carbazole] | > 200
2 | O=C1NCc2c1c1c3cc(/C=C/c4ccccn4)ccc3n3c1c1c2c2ccccc2n1CC(CO)C3 (centres unmarked) [Cpd 216, 3-[(2E)-2-pyridin-2-yl-ethenyl]-12,13-(2-hydroxymethyl-propan-1,3-yl)-6,7,12,13-tetrahydro-5-oxo-5H-indolo[2,3-a]pyrrolo[3,4-c]carbazole] | 310
3 | CC(C)OCc1ccc2c(c1)c1c3c(c4c5cc(COC(C)C)ccc5n5c4c1n2CC(CO)C5)C(=O)NC3 (centres unmarked) [Cpd 210, 3,9-bis-(isopropoxymethyl)-12,13-(2-hydroxymethyl-propan-1,3-yl)-6,7,12,13-tetrahydro-5-oxo-5H-indolo[2,3-a]pyrrolo[3,4-c]carbazole] | 1050
4 | COc1ccccc1CNC(=O)OC1Cn2c3ccccc3c3c4c(c5c6ccccc6n(c5c32)CC1O)C(=O)NC4=O (centres unmarked) [Cpd 78, 12,13-{2-[(2-methoxy-benzyl)carbamoyloxy]-3-hydroxy-butan-1,4-yl}-12,13-dihydro-5,7-dioxo-6H-indolo[2,3-a]pyrrolo[3,4-c]carbazole] | 179
5 | O=C1NC(=O)c2c1c1c3ccccc3n3c1c1c2c2ccccc2n1CC(OC(=O)N1CCCNCC1)C(O)C3 (centres unmarked) [Cpd 111, 12,13-{2-[(hexahydro-1H-1,4-diazepin-1-yl)carbonyloxy]-3-hydroxy-butan-1,4-yl}-12,13-dihydro-5,7-dioxo-6H-indolo[2,3-a]pyrrolo[3,4-c]carbazole] | 460
6 | O=C(NCCN1CCCC1)OC1Cn2c3ccccc3c3c4c(c5c6ccccc6n(c5c32)CC1O)C(=O)NC4=O (centres unmarked) [Cpd 92, 12,13-{2-[(2-pyrrolidin-1-yl-ethyl)carbamoyloxy]-3-hydroxy-butan-1,4-yl}-12,13-dihydro-5,7-dioxo-6H-indolo[2,3-a]pyrrolo[3,4-c]carbazole] | 97
7 | O=C1NC(=O)c2c1c1c3ccccc3n3c1c1c2c2ccccc2n1CC(OC(=O)N1CCCNCC1)CC3 (centres unmarked) [Cpd 60, 12,13-{2-[(hexahydro-1H-1,4-diazepin-1-yl)carbonyloxy]-butan-1,4-yl}-12,13-dihydro-5,7-dioxo-6H-indolo[2,3-a]pyrrolo[3,4-c]carbazole] | 156
8 | O=C1NCc2c1c1c3cc(OCCN4CCOCC4)ccc3n3c1c1c2c2ccccc2n1CC(O)C(O)C3 (centres unmarked) [Cpd 203, 3-(2-morpholin-4-yl-ethoxy)-12,13-(2,3-dihydroxy-butan-1,4-yl)-6,7,12,13-tetrahydro-5-oxo-5H-indolo[2,3-a]pyrrolo[3,4-c]carbazole] | 618
9 | O=C1NC(=O)c2c1c1c3ccccc3n3c1c1c2c2ccccc2n1CC(OC(=O)N1CCN(c2ccncc2)CC1)C(O)C3 (centres unmarked) [Cpd 96, 12,13-{2-[(4-pyridin-4-yl-piperazin-1-yl)carbonyloxy]-3-hydroxy-butan-1,4-yl}-12,13-dihydro-5,7-dioxo-6H-indolo[2,3-a]pyrrolo[3,4-c]carbazole] | 295
10 | O=C(NCCCN1CCCC1=O)OCC1(O)Cn2c3ccccc3c3c4c(c5c6ccccc6n(c5c32)C1)C(=O)NC4 (centres unmarked) [Cpd 140, 12,13-(2-hydroxy-2-{[3-(2-oxo-pyrrolidin-1-yl)-prop-1-yl]carbamoyloxymethyl}-propan-1,3-yl)-6,7,12,13-tetrahydro-5-oxo-5H-indolo[2,3-a]pyrrolo[3,4-c]carbazole] | 72

These reach a lower IC50. Values come first.

Row | IC50 [nM] | Compound
11 | 31 | O=C(NC1CCN(Cc2ccccc2)CC1)OCC1(O)Cn2c3ccccc3c3c4c(c5c6ccccc6n(c5c32)C1)C(=O)NC4 (centres unmarked) [Cpd 145, 12,13-{2-hydroxy-2-[(1-benzyl-piperidin-4-yl)carbamoyloxymethyl]-propan-1,3-yl}-6,7,12,13-tetrahydro-5-oxo-5H-indolo[2,3-a]pyrrolo[3,4-c]carbazole]
12 | 42 | CN(C)[C@H]1CCN(C(=O)OC2CCn3c4ccccc4c4c5c(c6c7ccccc7n(c6c43)C2)C(=O)NC5=O)C1 (stereo partly drawn) [Cpd 73, 12,13-(2-{[(3S)-3-dimethylamino-pyrrolidin-1-yl]carbonyloxy}-butan-1,4-yl)-12,13-dihydro-5,7-dioxo-6H-indolo[2,3-a]pyrrolo[3,4-c]carbazole]
13 | 15 | O=C1NC(=O)c2c1c1c3ccccc3n3c1c1c2c2ccccc2n1CC(O)(C(=O)NCc1ccncc1)C(O)C3 (centres unmarked) [Cpd 117, 12,13-{2-[(pyridin-4-ylmethyl)carbamoyl]-2,3-dihydroxy-butan-1,4-yl}-12,13-dihydro-5,7-dioxo-6H-indolo[2,3-a]pyrrolo[3,4-c]carbazole]
14 | 7 | COC(=O)/C1=C/Cn2c3ccccc3c3c4c(c5c6ccccc6n(c5c32)C1)C(=O)NC4=O [Cpd 3, 12,13-(2-methoxycarbonyl-but-2-en-1,4-yl)-12,13-dihydro-5,7-dioxo-6H-indolo[2,3-a]pyrrolo[3,4-c]carbazole]
15 | 55 | CN(C)CCN(Cc1ccccc1)C(=O)OC1Cn2c3ccccc3c3c4c(c5c6ccccc6n(c5c32)CC1O)C(=O)NC4=O (centres unmarked) [Cpd 69, 12,13-(2-{[N-benzyl-N-(2-dimethylamino-ethyl)]carbamoyloxy}-3-hydroxy-butan-1,4-yl)-12,13-dihydro-5,7-dioxo-6H-indolo[2,3-a]pyrrolo[3,4-c]carbazole]
16 | 1 | COC(=O)C1(O)Cn2c3ccccc3c3c4c(c5c6ccccc6n(c5c32)CC1O)C(=O)NC4=O (centres unmarked) [Cpd 12, 12,13-(2-methoxycarbonyl-2,3-dihydroxy-butan-1,4-yl)-12,13-dihydro-5,7-dioxo-6H-indolo[2,3-a]pyrrolo[3,4-c]carbazole]
17 | 3 | O=C1NCc2c1c1c3cc(O)ccc3n3c1c1c2c2ccccc2n1CC(O)C(O)C3 (centres unmarked) [Cpd 189, 3-hydroxy-12,13-(2,3-dihydroxy-butan-1,4-yl)-6,7,12,13-tetrahydro-5-oxo-5H-indolo[2,3-a]pyrrolo[3,4-c]carbazole]
18 | 27 | O=C(NCc1ccncc1)OC1Cn2c3ccccc3c3c4c(c5c6ccccc6n(c5c32)CC1O)C(=O)NC4=O (centres unmarked) [Cpd 89, 12,13-{2-[(pyridin-4-yl-methyl)carbamoyloxy]-3-hydroxy-butan-1,4-yl}-12,13-dihydro-5,7-dioxo-6H-indolo[2,3-a]pyrrolo[3,4-c]carbazole]
19 | 48 | O=C(NCCCN1CCCC1=O)OC1Cn2c3ccccc3c3c4c(c5c6ccccc6n(c5c32)CC1O)C(=O)NC4=O (centres unmarked) [Cpd 79, 12,13-(2-{[3-(2-oxo-pyrrolidin-1-yl)prop-1-yl]carbamoyloxy}-3-hydroxy-butan-1,4-yl)-12,13-dihydro-5,7-dioxo-6H-indolo[2,3-a]pyrrolo[3,4-c]carbazole]
20 | 28 | O=C1NC(=O)c2c1c1c3ccccc3n3c1c1c2c2ccccc2n1CC(O)(C(=O)N1CCC(O)CC1)C(O)C3 (centres unmarked) [Cpd 132, 12,13-{2-[(4-hydroxy-piperidin-1-yl)carbonyl]-2,3-dihydroxy-butan-1,4-yl}-12,13-dihydro-5,7-dioxo-6H-indolo[2,3-a]pyrrolo[3,4-c]carbazole]
